Assay results taken from patent US11439625B2, “Combination therapy for proliferative diseases” (Avexxin AS, priority 2016, dated 2022).

Test system: MDA-MB-468 cell line
Assay: Resazurin viability assay
Type: cell-based
Conditions: co-treatment with BEZ235, sub-toxic doses combined, 24 hrs, MDA-MB-468 cells (FIG. 1)
Procedure: Cell Culture. The MDA-MB-468 cell line was from ATCC. This cell line was established from a pleural effusion of patient with metastatic breast adenocarcinoma. The cells were maintained in RPMI medium supplemented with 10% (v/v) FBS, 0.3 mg/mL L-glutamine, and 0.1 mg/mL gentamicin at 37° C. in 5% CO2. Sub-culture using trypsin-EDTA was performed every 3-4 days with a split ratio of 1:3-1:6 to ensure actively proliferating cells.
Resazurin Viability Assay. Cells were seeded in fully supplemented medium at a density of 7 000 cells per well in 96 well plates. After 24 hrs of cultivation, when the cells were ˜60% confluent, the medium was replaced with serum free medium to ensure synchronization of the cells and to increase cell sensitivity to treatment. Following 16 hrs of serum starvation, the medium was replaced with fresh serum free medium with or without Compounds 1 and 2 (Avexxin, Norway), and NVP-BEZ235 (Cayman Chemicals, US) or solvent (DMSO, Sigma Aldrich, US). The cells were observed under the microscope to evaluate possible morphology changes and signs of stress before the addition of resazurin according to the manufacturers instructions (RnD Systems, UK). Resazurin was metabolized for 2 hrs (37° C., 5% CO2) before fluorescence was read at 544 nm excitation and 590 nm emission wavelengths (BioTek Synergy HT).

SMILES: CCCCCCCOc1ccc(OCC(=O)c2nc(C(=O)OC)cs2)cc1 [Compound 1]
- synergistic effects on breast cancer cell viability compared to each inhibitor alone: synergistic effects
- synergistic effects on breast cancer cell viability compared to each inhibitor alone (listed as compound 1): the synergistic effect is pronounced
